Experiments:
Assay in all cases: TLR2, TLR4, TLR7/8 NFkB reporter inhibition, late-stage follow-up, selectivity assay for TLR9 inhibitor project, RAW264.7 cells, luminescence, powder samples (AID 720520); call rule not given here
TLR2 = conditions: RAW264.7 TLR2/4/7-8 NFkB-luciferase reporter, 6 h, with MALP-2 50 ng/mL
TLR4 = conditions: RAW264.7 TLR2/4/7-8 NFkB-luciferase reporter, 6 h, with LPS 0.1 µg/mL
TLR7/8 = conditions: RAW264.7 TLR2/4/7-8 NFkB-luciferase reporter, 6 h, with R848 1 µg/mL

Measured: IC50

COc1ccc(C[C@@H]2OC3(C=CC(=O)C=C3)O[C@H]2Cc2ccc(OC)cc2)cc1
active: TLR2 58 nM | TLR4 72 nM | TLR7/8 80 nM

O=S(=O)(/C=C/C=C/S(=O)(=O)c1ccccc1)c1ccccc1
active: TLR2 126 nM | TLR4 126 nM | TLR7/8 93 nM

O=C1C=CC2(C=C1)O[C@H](Cc1ccccc1)[C@@H](Cc1ccccc1)O2
active: TLR2 226 nM | TLR4 226 nM | TLR7/8 245 nM

Reference: PubChem BioAssay AID720520 (The Scripps Research Institute Molecular Screening Center, 2013)
